Like-named read-outs stand apart in the source and are kept apart here.
Legend:
Format in all cases: cell-based
[1] = system: human breast cancer cell line MCF-7; test: Antiproliferative WST-1 assay; conditions: WST-1, 5 days
Procedure: (§1) In addition to probing effects on bacterial pathogens, the compounds’ ability to interfere with the proliferation and/or viability of four mammalian cell lines was assessed by quantifying their mitochondrial dehydrogenase activity in a colorimetric assay with the tetrazolium dye WST-1.
(§2) The effects of the compounds on cell viability were probed with a WST-1 test using the procedure of Ishiyama et al. as modified by Sasse et al.. […] Briefly, the subconfluent cells were washed with Earle’s Balanced Salt Solution (Gibco) without Ca and Mg ions, trypsinized, and re-suspended in Dulbecco’s modified eagle’s medium that contained 5% fetal bovine serum (FBS; L929, KB-3-1, FS4-LTM) or Roswell Park Memorial Institute medium that contained 5% FBS, 0.5% Minimum Essential Medium Non-Essential Amino Acids, Gibco (MEM NEAA), 0.5% GlutaMAX (Gibco), and insulin at 5 μg/mL (MCF-7). […] The blank and solvent controls were incubated under identical conditions. After an incubation period of 5 days (for L929, KB-3-1, and MCF-7) or 24 h (for FS4-LTM), 3 μL of WST-1 (ready-to-use solution by Roche) was added. The incubation time of the plates at 37 °C varied between the cell lines from 20 min for KB-3-1, 30 min for L929, 1 h for FS4-LTM, to 2 h for MCF-7, before measuring absorbance at 450 nm (reference 600 nm) with an Infinite 200 PRO plate reader (Tecan, Männedorf, Switzerland). As the positive control compounds, Auranofin and Staurosporin were applied. The absorbance of the solvent control was set to 100%. The EC50 values were determined with Sigma Plot.

[2] = system: mouse fibroblast cell line L929; test: Antiproliferative WST-1 assay; conditions: WST-1, 5 days
Procedure: as §2, with “In addition to probing effects on bacterial pathogens, the compounds’ ability to interfere with the proliferation and/or viability of four mammalian cell lines was assessed by quantifying their mitochondrial dehydrogenase activity in a colorimetric assay with the tetrazolium dye WST-1. […] The effects” for “The effects”

[3] = system: human cervical carcinoma cell line KB-3-1; test: Antiproliferative WST-1 assay; conditions: WST-1, 5 days
Procedure: as §2, with “In addition to probing effects on bacterial pathogens, the compounds’ ability to interfere with the proliferation and/or viability of four mammalian cell lines was assessed by quantifying their mitochondrial dehydrogenase activity in a colorimetric assay with the tetrazolium dye WST-1. […] The effects” for “The effects”

[4] = system: conditional immortalized human fibroblast cell line FS4-LTM; test: Antiproliferative WST-1 assay; conditions: WST-1, 24 h
Procedure: as §2, with “In addition to probing effects on bacterial pathogens, the compounds’ ability to interfere with the proliferation and/or viability of four mammalian cell lines was assessed by quantifying their mitochondrial dehydrogenase activity in a colorimetric assay with the tetrazolium dye WST-1. […] The effects” for “The effects”

[5] = system: Staphylococcus aureus MRSA (DSM 11822); test: Antibacterial growth inhibition screen, residual growth in % (OD600); conditions: for activity at 5 µM: Staphylococcus aureus, strain DSM 11822, compound concentration 5 µM, 18 h at 37 °C; for activity against MRSA (in words): growth inhibition assay
Procedure: (§3) Overnight cultures of the bacteria were grown aerobically at 37 °C in Müller–Hinton broth with added 1% glucose and a pH of 7.2 for Gram-negative strains, or with a Trypticase soy yeast extract medium (TSY—30 g/L Trypticase soy broth, 3 g/L yeast extract, pH 7.2) for Gram-positive strains. […] A total of 25 μL of test culture was added to 25 μL of a serial dilution of the test compounds in the appropriate medium for the different strains in accordance with standardized procedures in 384-well plates. For screening purposes, the residual absorbance in % was tested at the compound concentrations of 5 and 50 µM. For the selected compounds, the concentration-dependent growth inhibition curves were recorded from the stock solutions in DMSO at the final concentrations of 100, 50, 25, 12.5, 6,25, 3.125, 1.56, 0.78, 0.39, and 0.2 µM. As the positive control compounds, Linezolid (both MRSA strains) Ciprofloxacin (E. faecium, E. coli), and Amikacin (P. aeruginosa) were applied. The highest DMSO concentration in the assay was 1%, which had no apparent effect on the growth of the bacteria. After an incubation time of 18 h at 37 °C under moist conditions, the optical density at 600 nm was measured with a Fusion Universal Microplate Analyzer (Perkin–Elmer, Waltham, MA, USA). […] The following bacterial strains were used: Gram-negative: Escherichia coli (DSM 1116) and Pseudomonas aeruginosa PA7 (DSM 24068), and Gram-positive: Staphylococcus aureus MRSA (clinical isolate, RKI 11-02670) and Staphylococcus aureus MRSA (DSM 11822). The MIC values were determined by curve fitting with Sigma Plot.

[6] = system: Staphylococcus aureus MRSA (clinical isolate, RKI 11-02670); test: Antibacterial MIC determination, concentration-dependent growth inhibition
Procedure: as §3

[7] = system: four mammalian cell lines (L929, KB-3-1, MCF-7, FS4-LTM); test: Antiproliferative WST-1 assay, range over all four cell lines; conditions: 5 days (L929, KB-3-1, MCF-7) or 24 h (FS4-LTM)
Procedure: as §1
The effects of the compounds on cell viability were probed with a WST-1 test using the procedure of Ishiyama et al. as modified by Sasse et al.. […] Briefly, the subconfluent cells were washed with Earle’s Balanced Salt Solution (Gibco) without Ca and Mg ions, trypsinized, and re-suspended in Dulbecco’s modified eagle’s medium that contained 5% fetal bovine serum (FBS; L929, KB-3-1, FS4-LTM) or Roswell Park Memorial Institute medium that contained 5% FBS, 0.5% Minimum Essential Medium Non-Essential Amino Acids, Gibco (MEM NEAA), 0.5% GlutaMAX (Gibco), and insulin at 5 μg/mL (MCF-7). […] After an incubation period of 5 days (for L929, KB-3-1, and MCF-7) or 24 h (for FS4-LTM), 3 μL of WST-1 (ready-to-use solution by Roche) was added. The incubation time of the plates at 37 °C varied between the cell lines from 20 min for KB-3-1, 30 min for L929, 1 h for FS4-LTM, to 2 h for MCF-7, before measuring absorbance at 450 nm (reference 600 nm) with an Infinite 200 PRO plate reader (Tecan, Männedorf, Switzerland). […] The absorbance of the solvent control was set to 100%. The EC50 values were determined with Sigma Plot.

[8] = strain RKI 11-02670, 18 h at 37 °C, read-out: MRSA MIC
[9] = strain RKI 11-02670, converted from µM, read-out: MRSA MIC (µg/mL values in brackets)

Row | SMILES | activity at 5 µM [5] [%] | activity against MRSA (in words) [5] | EC50 ([1]; Homo sapiens, MCF7, 120 h) [µM] | EC50 ([2]; Mus musculus, L929, 120 h) [µM] | EC50 ([3]; Homo sapiens, KB 3-1, 120 h) [µM] | EC50 ([4]; Homo sapiens, FS4-LTM) [µM] | further results
1 | CC(=O)OC[C@H]1O[C@@H]([S-])[C@H](OC(C)=O)[C@@H](OC(C)=O)[C@@H]1OC(C)=O.CCP(CC)CC.[Au+] [Auranofin, reference compound] | – | – | – | – | – | – | EC50 [1]: 3.5 µM; EC50 [2]: 0.4 µM; EC50 [3]: 0.6 µM; EC50 [4]: 1.3 µM
2 | CCOC(=O)CSc1nc2c(ccc3cc4ccccc4cc32)c(C(Cl)Cl)c1[N+](=O)[O-] [Compound 6, Ethyl 2-((4-(dichloromethyl)-3-nitronaphtho[2,3-h]quinolin-2-yl)thio)acetate] | 112 | inactive | – | – | – | – | –
3 | CCOC(=O)C[S+]([O-])c1nc2c(ccc3ccccc32)c(C(Cl)Cl)c1[N+](=O)[O-] (centres unmarked) [Compound 8, Ethyl 2-((4-(dichloromethyl)-3-nitrobenzo[h]quinolin-2-yl)sulfinyl)acetate] | 1 | – | 3.5 | 2.5 | 3.8 | 3.4 | MIC [6, 8]: 17.5 µM; MIC [6, 9]: 7.7 µg/mL; EC50 [7]: 2.5 to 3.8 µM
4 | O=[N+]([O-])c1c(Sc2ccc(F)cc2)nc2c(ccc3ccccc32)c1C(Cl)Cl [Compound 10d, 4-(Dichloromethyl)-2-((4-fluorophenyl)thio)-3-nitrobenzo[h]quinoline] | 98.4 | complete loss of activity | > 50 | > 50 | < 0.1 | > 50 | –
5 | O=[N+]([O-])c1c(N2CCCCC2)nc2c(ccc3ccccc32)c1C(Cl)Cl [Compound 11a, 4-(Dichloromethyl)-3-nitro-2-(piperidin-1-yl)benzo[h]quinoline] | 95.6 | inactive | 19 | > 50 | > 50 | > 50 | –
6 | O=[N+]([O-])c1c(N2CCOCC2)nc2c(ccc3ccccc32)c1C(Cl)Cl [Compound 11b, 4-(4-(Dichloromethyl)-3-nitrobenzo[h]quinolin-2-yl)morpholine] | 123 | inactive | 50 | 27 | 10 | > 50 | –
7 | O=[N+]([O-])c1c([S+]([O-])c2ccc(F)cc2)nc2c(ccc3ccccc32)c1C(Cl)Cl (centres unmarked) [Compound 12, 4-(Dichloromethyl)-2-((4-fluorophenyl)sulfinyl)-3-nitrobenzo[h]quinoline] | 2 | – | > 50 | 3.3 | 3.1 | 4.4 | MIC [6, 8]: 1.2 µM; MIC [6, 9]: 0.5 µg/mL
8 | O=C(O)CSc1nc2c(ccc3ccccc32)c(C(Cl)Cl)c1[N+](=O)[O-] [Compound 13, 2-((4-(Dichloromethyl)-3-nitrobenzo[h]quinolin-2-yl)thio)acetic acid] | 1 | high activity | 17 | 45 | 6.9 | 15.7 | MIC [6, 8]: 8.4 µM; MIC [6, 9]: 3.3 µg/mL; EC50 [7]: 6.9 to 45 µM
9 | O=[N+]([O-])C(C(Cl)=C(Cl)Cl)=C(n1cccn1)n1cccn1 [Compound 16c, 1,1’-(3,4,4-Trichloro-2-nitrobuta-1,3-diene-1,1-diyl)bis(1H-pyrazole)] | 126 | no activity | – | – | – | – | –
10 | O=[N+]([O-])/C(C(Cl)=C(Cl)Cl)=C(\Nc1cccc2ccccc12)n1nnc2ccccc21 [Compound 17a, (E)-N-(1-(1H-Benzo[d][1,2,3]triazol-1-yl)-3,4,4-trichloro-2-nitrobuta-1,3-dien-1-yl)naphthalen-1-amine] | 120 | – | – | – | – | – | –
11 | O=[N+]([O-])/C(C(Cl)=C(Cl)Cl)=C(\Nc1cccc2ccccc12)n1cncn1 [Compound 17b, (E)-N-(3,4,4-Trichloro-2-nitro-1-(1H-1,2,4-triazol-1-yl)buta-1,3-dien-1-yl)naphthalen-1-amine] | 112 | – | – | – | – | – | –
12 | O=[N+]([O-])/C(C(Cl)=C(Cl)Cl)=C(\Nc1cccc2ccccc12)n1cccn1 [Compound 17c, (E)-N-(3,4,4-Trichloro-2-nitro-1-(1H-pyrazol-1-yl)buta-1,3-dien-1-yl)naphthalen-1-amine] | 101 | – | – | – | – | – | –
13 | O=[N+]([O-])c1c(-n2nnc3ccccc32)nc2c(ccc3ccccc32)c1C(Cl)Cl [Compound 18a, 2-(1H-Benzo[d][1,2,3]triazol-1-yl)-4-(dichloromethyl)-3-nitrobenzo[h]quinoline] | 95.1 | – | – | – | – | – | –
14 | O=[N+]([O-])c1c(-n2cncn2)nc2c(ccc3ccccc32)c1C(Cl)Cl [Compound 18b, 4-(Dichloromethyl)-3-nitro-2-(1H-1,2,4-triazol-1-yl)benzo[h]quinoline] | 107 | – | – | – | – | – | –
15 | O=[N+]([O-])c1c(-n2cccn2)nc2c(ccc3ccccc32)c1C(Cl)Cl [Compound 18c, 4-(Dichloromethyl)-3-nitro-2-(1H-pyrazol-1-yl)benzo[h]quinoline] | 110 | – | – | – | – | – | –
16 | CC(=O)NC[C@H]1CN(c2ccc(N3CCOCC3)c(F)c2)C(=O)O1 [Linezolid, reference compound] | 1 | – | – | – | – | – | MIC [6, 8]: 0.4 µM
17 | CN[C@@H]1C[C@H]2O[C@@](C)([C@@H]1OC)n1c3ccccc3c3c4c(c5c6ccccc6n2c5c31)C(=O)NC4 [Staurosporine, reference compound] | – | – | < 0.14 | – | – | – | –
